Test results as given in patent publication US20080131920A1, “Ion flux in biological processes, and methods related thereto” (priority 2005, published 2008).

How the values were obtained:
primitive streak cells = assay: Cellular pH imaging of early chick blastoderm with SNARF-1-AM; format: in vivo
Xenopus embryos = format: in vivo; conditions: treated from fertilization to stage 7; organs scored at stage 45
[1] = tested on: H+ flux from living early blastomeres; assay: Self-referencing ion-selective (Seris) probe measurement of H+ flux; parameters: species or system Xenopus laevis; conditions: in vivo
From the text: We examined ion flux using a self-referencing ion probe to measure H^+ flux from living early blastomeres. The H^+-V-ATPase endogenously acts to pump protons out of the cell (e.g., it mediates proton efflux). We note, however, that other ion transporters modulate influx of ions. The term ion flux refers to movement of ions across membranes, regardless of the direction. The techniques provided herein can be used to evaluate changes in either ion efflux or influx, and thus can generally be used to evaluate ion flux and changes in ion flux following manipulation of an ion transporter protein or a class of ion transporter proteins.
To confirm that the asymmetric efflux was due to asymmetric H^+-V-ATPase function, we compared H^+ efflux in control embryos to efflux from embryos treated with a variety of ion flux inhibitors.
The self-referencing ion-selective (Seris) probe consists of an ion selective microelectrode that is translated between two points in the extracellular space near the plasma membrane of a cell. If a net flux of ion into or out of the cell is detected, the resultant concentration gradient will be detected as a voltage difference from which the ion flux through the membrane can be calculated. […]. […]

XNr-1 = assay: Left-sided XNr-1 expression by whole mount in situ hybridization; parameters: species or system Xenopus laevis; conditions: in vivo
Procedure: As outlined above, effects on asymmetry were initially evaluated by inspection of embryo morphology. […] Embryos were treated with the H^+-V-ATPase inhibitory compound concanamycin.
Whole mount in situ hybridization (WISH) on Xenopus was performed according to standard methods. DNA used to transcribe in situ hybridization probes were XNr-1 (Lohr et al., 1998, Developmental Genetics 23: 194-202; Lowe et al., 1996, Nature 381: 158-161); cShh (Levin et al., 1995, Cell 82: 803-814); cNodal (Levin et al., 1995, Cell 82: 803-814).

axons of the tail = assay: Axonal patterning in regenerating tails (acetylated α-tubulin immunohistochemistry); parameters: species or system Xenopus laevis; conditions: in vivo
From the text: Finally, to characterize downstream morphogenetic consequences of V-ATPase abrogation, we traced axonal paths during regeneration using immunohistochemistry with an acetylated α-tubulin antibody. In normally regenerating tails, axons appear increased in number (relative to the uncut portion of tail) and they extend into the bud in bundles parallel to the main anterior-posterior axis of the tail (FIG. 14H; green arrows indicate normal axon patterning, while black arrows indicate abnormal axon number and/or location). […] Moreover, in normal refractory tails, there is no apparent increase in the number of axons, and those that are present terminate well anterior of the tail tip (FIG. 14K). […]
Axon and muscle marker detection was performed using fluorescent secondary antibodies. […] Fluorescence images were collected on a Leica TCS SPZ confocal imaging system; λex=543. […] Background autofluorescence was removed by segmentation of the original fluorescence images. The brightest pixels could readily be selected such that the selection best represented the pattern of axons. […]

**Q.** How did the “pH of cells in the primitive streak” value (primitive streak cells) turn out when `C/C=C/[C@H]1O[C@@](O)([C@@H](C)[C@H](O)[C@H](C)[C@H]2OC(=O)/C(OC)=C/C(C)=C/[C@@H](C)[C@@H](O)[C@@H](CC)[C@@H](O)[C@H](C)C/C(C)=C/C=C/[C@@H]2OC)C[C@@H](O)[C@@H]1C` [concanamycin] was run?
**A.** The value was “lowered the pH”.

**Q.** What about the “heterotaxia, % of the embryos” value (Xenopus embryos) of the same compound?
**A.** The value was 35%.

**Q.** And the “left/right asymmetry in the proton fluxes” value [1]?
**A.** Its value is “eliminated”.

**Q.** And the “proton efflux on the right side” value [1]?
**A.** Its value is “about half of its original value”.

**Q.** And the “left-sided gene expression of XNr-1” value (XNr-1)?
**A.** Its value is “perturbed the normally left-sided gene expression”.

**Q.** And the “axon patterning in V-ATPase-inhibited tails” value (axons of the tail)?
**A.** Its value is “axon patterning is abnormal”.
